Test results: patent publication US9890139B2, “CYP17 inhibitors/antiandrogens” (Orion Corporation, priority 2013, dated 2018)

Biological target: T1, 17,20 lyase (CYP17) (Homo sapiens, UniProt P05093)
T1 construct: endogenous in cells; host or cells: H295R human adrenocortical carcinoma cells
T1 sequence (P05093 1-508): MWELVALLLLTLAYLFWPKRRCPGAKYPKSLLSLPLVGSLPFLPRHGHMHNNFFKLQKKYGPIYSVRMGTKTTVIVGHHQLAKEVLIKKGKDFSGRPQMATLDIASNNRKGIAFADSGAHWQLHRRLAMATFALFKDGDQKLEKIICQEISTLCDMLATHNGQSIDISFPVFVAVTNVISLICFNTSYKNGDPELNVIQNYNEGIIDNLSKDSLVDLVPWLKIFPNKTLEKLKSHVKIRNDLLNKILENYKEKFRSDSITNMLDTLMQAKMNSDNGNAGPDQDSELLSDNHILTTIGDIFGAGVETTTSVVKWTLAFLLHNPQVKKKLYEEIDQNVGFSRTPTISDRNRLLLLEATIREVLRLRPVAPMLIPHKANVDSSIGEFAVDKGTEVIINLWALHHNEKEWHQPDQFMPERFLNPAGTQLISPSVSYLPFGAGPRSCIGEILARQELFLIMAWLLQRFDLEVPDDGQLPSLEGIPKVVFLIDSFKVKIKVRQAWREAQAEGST
Assay: 17,20 lyase (CYP17) inhibition, acetic acid release assay (AARA) on H295R cells
Type: cell-based
Details: human H295R adrenocortical carcinoma cells; overnight (16-19 h) with 17α-[21-3H]hydroxypregnenolone; 3H-acetic acid release; 1% DMSO; quadruplicates; read-out: CYP17 inhibition IC50
Protocol: The ability of the test compounds to inhibit 17,20 lyase catalysed conversion of 17α-hydroxypregnenolone to dehydroepiandrosterone and acetic acid was measured by acetic acid release assay (AARA) on human H295R adrenocortical carcinoma cell line (Grigoryev, D. N. et al., Analytical Biochemistry 1999; 267:319-330). […] The final DMSO concentration was 1%. Cell culture medium was extracted with dextran-coated charcoal suspension (Isomaa, V. et al., Endocrinology 1982; 111(3):833-843). ^3H-acetic acid was determined by mixing 100 μl of supernatant fraction in 200 μl of scintillation fluid (OptiPhase SuperMix, Perkin Elmer). Radioactivity was measured using a Microbeta scintillation counter (1450 MicroBeta Trilux, Wallac). All the test compounds were studied in quadruplicates.

Compound | IC50 [nM]
CN(c1ccc(C#N)c(Cl)c1)C1CC(c2c[nH]cn2)=CCC1(C)C (single isomer, unassigned) [Ex. 2 enantiomer 1, 4-((3-(1H-imidazol-4-yl)-6,6-dimethylcyclohex-3-enyl)(methyl)amino)-2-chlorobenzonitrile] | 27
CN(c1ccc(C#N)c(C(F)(F)F)c1)C1C=C(n2ccnc2)CCC1 (single isomer, unassigned) [Ex. 6 enantiomer 1, 4-((3-(1H-imidazol-1-yl)cyclohex-2-enyl)(methyl)amino)-2-(trifluoromethyl)benzonitrile] | 74
CCN(c1ccc(C#N)c(C(F)F)c1)C1C=C(n2ccnc2)CCC1(C)C (single isomer, unassigned) [Ex. 31 enantiomer 1, 4-((3-(1H-imidazol-1-yl)-6,6-dimethylcyclohex-2-enyl)(ethyl)amino)-2-(difluoromethyl)benzonitrile] | 23
CN(c1ccc(C#N)c(C(F)(F)F)c1)C1CC(n2ccnc2)CCC1(C)C (single isomer, unassigned) [Ex. 47 cis-enantiomer 3, 4-((5-(1H-Imidazol-1-yl)-2,2-dimethylcyclohexyl)(methyl)amino)-2-(trifluoromethyl)benzonitrile] | 18
CN(c1ccc(C#N)c(C(F)(F)F)c1)C1C(O)C(c2c[nH]cn2)=CCC1(C)C (single isomer, unassigned) [Ex. 245, 4-{[2-Hydroxy-3-(1H-imidazol-4-yl)-6,6-dimethylcyclohex-3-enyl](methyl)-amino}-2-(trifluoromethyl)benzonitrile] | 97
CN(c1ccc(C#N)c(C(F)(F)F)c1)C1CC(c2c[nH]cn2)=CCC1(C)C (single isomer, unassigned; diastereomer 1) [Ex. 244 diastereomer 1, 4-{[3-(1H-Imidazol-4-yl)-6,6-dimethylcyclohex-3-enyl](methyl)amino}-2-(trifluoromethyl)benzonitrile] | 116
CCN(c1cc(F)c(C#N)c(F)c1)C1CCCC(n2ccnc2)C1 (single isomer, unassigned; diastereomer 4) [Ex. 12 cis-diastereomer] | 18
CCN(c1ccc(C#N)c(C(F)(F)F)c1)C1CCC=C(c2cccnc2)C1(C)C (centres unmarked) [Ex. 97, 4-((2,2-dimethyl-3-(pyridin-3-yl)cyclohex-3-en-1-yl)(ethyl)amino)-2-(trifluoromethyl)benzonitrile] | 66
CCN(c1ccc(C#N)c(C(F)(F)F)c1)C1CCC=C(c2c[nH]cn2)C1(C)C (centres unmarked) [Ex. 100, 4-((3-(1H-imidazol-4-yl)-2,2-dimethylcyclohex-3-en-1-yl)(ethyl)amino)-2-(trifluoromethyl)benzonitrile] | 36

Biological target: T2, full-length human AR (Homo sapiens, UniProt P10275)
T2 construct: expression vector encoding full-length human AR; expressed in transfected cells; host or cells: HEK293 (hAR/HEK293 cells)
T2 sequence (P10275 1-920): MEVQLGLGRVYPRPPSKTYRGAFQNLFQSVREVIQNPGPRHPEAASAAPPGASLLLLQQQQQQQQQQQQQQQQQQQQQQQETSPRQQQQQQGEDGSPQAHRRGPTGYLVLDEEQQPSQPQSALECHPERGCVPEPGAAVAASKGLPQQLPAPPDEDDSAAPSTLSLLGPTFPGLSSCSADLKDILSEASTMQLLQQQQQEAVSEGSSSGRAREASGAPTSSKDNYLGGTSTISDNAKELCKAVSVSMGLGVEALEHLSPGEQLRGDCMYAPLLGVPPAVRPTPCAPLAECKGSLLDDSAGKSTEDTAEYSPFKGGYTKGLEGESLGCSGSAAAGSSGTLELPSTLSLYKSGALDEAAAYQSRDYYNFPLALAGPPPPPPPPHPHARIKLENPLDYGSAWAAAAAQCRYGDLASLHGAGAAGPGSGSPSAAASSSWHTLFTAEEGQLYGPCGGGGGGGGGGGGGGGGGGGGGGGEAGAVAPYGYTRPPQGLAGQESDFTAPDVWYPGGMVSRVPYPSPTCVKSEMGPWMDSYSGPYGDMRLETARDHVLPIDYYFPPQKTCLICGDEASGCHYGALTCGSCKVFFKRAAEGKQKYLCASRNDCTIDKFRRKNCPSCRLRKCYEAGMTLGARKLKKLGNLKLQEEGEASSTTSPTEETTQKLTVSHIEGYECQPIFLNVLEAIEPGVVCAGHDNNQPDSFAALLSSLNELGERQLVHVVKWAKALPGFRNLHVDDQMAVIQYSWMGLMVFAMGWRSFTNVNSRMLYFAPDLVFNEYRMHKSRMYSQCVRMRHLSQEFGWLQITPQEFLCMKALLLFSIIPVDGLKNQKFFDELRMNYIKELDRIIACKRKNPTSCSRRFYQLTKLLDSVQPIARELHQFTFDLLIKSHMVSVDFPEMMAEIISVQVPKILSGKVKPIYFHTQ
Assay: AR antagonism, reporter gene assay in hAR/HEK293 cells
Type: cell-based
Details: HEK293 cells stably transfected with full-length human AR and androgen responsive luciferase reporter; co-treated with submaximal testosterone (usually 0.45 nM); 1% DMSO; triplicates
Protocol: Antagonism of test compounds for AR was measured by reporter gene assay in human embryonic kidney (HEK293) cells stably transfected with an expression vector encoding full-length human AR and androgen responsive luciferase reporter gene construct (hAR/HEK293 cells). To determine antagonism for hAR, the cells were treated simultaneously with increasing concentrations of the test compound and submaximal concentration of testosterone (usually 0.45 nM). The final DMSO concentration was 1%. All test compounds were studied in triplicates. The cells were incubated for […] before measurement of luciferase activity using Luciferase Assay System (Promega Corporation).

Compound | IC50 [nM]
CCN(c1ccc(C#N)c(C(F)(F)F)c1)C1CCCC(n2ccnc2)C1 (single isomer, unassigned) [Ex. 72 cis-enantiomer 2, 4-((3-(1H-imidazol-1-yl)cyclohexyl)(ethyl)amino)-2-(trifluoromethyl)benzonitrile] | 27
CCN(c1ccc(C#N)c(C(F)(F)F)c1)C1CCCC(O)(c2cccnc2)C1 (single isomer, unassigned) [Ex. 216 diastereomer 2, 4-(Ethyl(3-hydroxy-3-(pyridin-3-yl)cyclohexyl)amino)-2-(trifluoromethyl)-benzonitrile] | 28
CN(c1ccc(C#N)c(C(F)(F)F)c1)C1C=C(c2cncs2)CCC1 (single isomer, unassigned) [Ex. 232 enantiomer 1, 4-(Methyl(3-(thiazol-5-yl)cyclohex-2-en-1-yl)amino)-2-(trifluoromethyl)-benzonitrile] | 33
CCN(c1ccc(C#N)c(C(F)(F)F)c1)C1CC=C(c2cnco2)C1 (single isomer, unassigned) [Ex. 233 enantiomer 2, 4-(Ethyl(3-(oxazol-5-yl)cyclopent-3-enyl)amino)-2-(trifluoromethyl)benzonitrile] | 29
CCN(c1ccc(C#N)c(Cl)c1)C1CCCC(c2cccnc2)C1 (single isomer, unassigned; diastereomer 2) [Ex. 76 cis-diastereomer, 2-Chloro-4-(ethyl(3-(pyridin-3-yl)cyclohexyl)amino)benzonitrile] | 1
CCN(c1ccc(C#N)c(Cl)c1)C1CCCC(c2cncc(OC)c2)C1 (single isomer, unassigned; diastereomer 2) [Ex. 83 cis-diastereomer, 2-Chloro-4-(ethyl(3-(5-methoxypyridin-3-yl)cyclohexyl)amino)benzonitrile] | 16
CCN(c1ccc(C#N)c(C(F)(F)F)c1)C1CCCC(c2nnco2)C1 (single isomer, unassigned; diastereomer 4) [Ex. 19 cis-diastereomer, 4-((3-(1,3,4-Oxadiazol-2-yl)cyclohexyl)(ethyl)amino)-2-(trifluoromethyl)benzonitrile] | 65
CCN(c1ccc(C#N)c(C(F)(F)F)c1)C1CCCC(n2cccn2)C1 (single isomer, unassigned; diastereomer 4) [Ex. 48 cis-diastereomer, 4-((-3-(1H-Pyrazol-1-yl)cyclohexyl)(ethyl)amino)-2-(trifluoromethyl)benzonitrile] | 24
CCN(c1ccc(C#N)c(C(F)(F)F)c1)C1CCCC(c2nnn(C)n2)C1 (single isomer, unassigned; isomer 4) [Ex. 11 cis of 2,5-isomer, 4-(Ethyl(3-(2-methyl-2H-tetrazol-5-yl)cyclohexyl)amino)-2-(trifluoromethyl)benzonitrile] | 26
CCN(c1ccc(C#N)c(C(F)(F)F)c1)C1CCC=C(c2ccncc2)C1 (centres unmarked) [Ex. 77, 4-(Ethyl(3-(pyridin-4-yl)cyclohex-3-en-1-yl)amino)-2-(trifluoromethyl)benzonitrile] | 40
CCN(c1cc(F)c(C#N)c(Cl)c1)C1CCC=C(c2cccnc2)C1 (centres unmarked) [Ex. 132, 2-Chloro-4-(ethyl(3-(pyridin-3-yl)cyclohex-3-en-1-yl)amino)-6-fluorobenzonitrile] | 7
CCN(c1ccc(C#N)c(C(F)(F)F)c1)C1C=C(n2cncn2)CCC1 (centres unmarked) [Ex. 210, 4-((3-(1H-1,2,4-triazol-1-yl)cyclohex-2-en-1-yl)(ethyl)amino)-2-(trifluoromethyl)benzonitrile] | 23
CCN(c1ccc(C#N)c(C(F)(F)F)c1)C1CCCC(n2ccnn2)C1 (stereo not drawn) [Ex. 223, 4-((3-(1H-1,2,3-triazol-1-yl)cyclohexyl)(ethyl)amino)-2-(trifluoromethyl)-benzonitrile (cis-diastereomer)] | 79
CN(c1ccc(C#N)c(C(F)(F)F)c1)[C@@H]1C=C(n2ccnc2)[C@@H](O)CC1(C)C [Ex. 262, 4-(((1R,4S)-4-hydroxy-3-(1H-imidazol-1-yl)-6,6-dimethylcyclohex-2-en-1-yl)(methyl)-amino)-2-(trifluoromethyl)benzonitrile] | 89
